Patent US10167299B2, “1-(3-aminopropyl) substituted cyclic amine compounds, preparation method therefor, and pharmaceutical compositions and uses thereof” (SHANGHAI INSTITUTE OF MATERIA MEDICA, CHINESE ACADEMY OF …, priority 2013, dated 2019)
In brackets after ≈: the same amount, converted by molar mass. Where two headings read alike, the source gives them in different places.

What was measured:
[1] = Cytotoxicity (CC50) in TZM-bl cells; type: cell-based; details: human; TZM-bl cells (Table 3); read-out: CC50
[2] = tested on: HIV-1SF162 virus strain; experiment: Inhibition of viral replication in PBMC infected with HIV-1SF162; type: cell-based
Procedure: (§1) The virus was titrated according to the modified method of Johnson & Byington. Briefly, the HIV-1 stock solution was subject to four-fold dilution in a 96-well plate (ten gradients) sextuplicate for each gradient, while setting six control-wells. Into each well was added 100 μl (5×10^6/ml) PHA-stimulated PBMC cells and final volume per well was 200 μl. The cells were cultured at 37° C. with 5% CO2. […] On the seventh day, the infected supernatant was collected and lysed with 0.5% Triton X100. The p24 antigen was detected by ELISA and TCID50 of virus was calculated according to Reed & Muench method (50% Tissue culture infection dose).
(§2) The starting concentration was 1 μM, six dilutions were obtained, and each well contained 200 μl mixture. While wells not containing drugs were set as control. […] After homogeneously mixed, the mixture was immediately added to 48-well plate containing diluted drug and each well was added with 200 μl of mixture. MVC was used as positive control. The cells were cultured at 37° C. with 5% CO2 for seven days (drug with the same concentration was added on the third day). The supernatant was collected, lysed and inactivated with 0.5% Triton X-100. The inhibition effect of drug on HIV-1 replication was detected using p24 antigen capture ELISA method.

[3] = tested on: HIV-1KM018 virus strain; experiment: Inhibition of viral replication in PBMC infected with HIV-1KM018; type: cell-based
Procedure: as §1, §2

[4] = tested on: HIV-1Ba-L virus strain; experiment: Inhibition of viral replication in PBMC infected with HIV-1Ba-L; type: cell-based
Procedure: The virus was titrated according to the modified method of Johnson & Byington. Briefly, the HIV-1 stock solution was subject to four-fold dilution in a 96-well plate (ten gradients) sextuplicate for each gradient, while setting six control-wells. Into each well was added 100 μl (5×10^6/ml) PHA-stimulated PBMC cells and final volume per well was 200 μl. The cells were cultured at 37° C. with 5% CO2. On the third day, 100 μl of fresh RPMI-1640 complete medium was supplemented. On the seventh day, the infected supernatant was collected and lysed with 0.5% Triton X100. The p24 antigen was detected by ELISA and TCID50 of virus was calculated according to Reed & Muench method (50% Tissue culture infection dose).
The compound to be tested was subject to 5-fold dilution in 48-well plate with RPMI-1640 complete medium (containing 10% FBS). The starting concentration was 1 μM, six dilutions were obtained, and each well contained 200 μl mixture. While wells not containing drugs were set as control. Virus (MOI=0.01) was added to 5×10^6/ml of PBMC cells which have been stimulated by PHA for 72 h. After homogeneously mixed, the mixture was immediately added to 48-well plate containing diluted drug and each well was added with 200 μl of mixture. MVC was used as positive control. The cells were cultured at 37° C. with 5% CO2 for seven days (drug with the same concentration was added on the third day). The supernatant was collected, lysed and inactivated with 0.5% Triton X-100. The inhibition effect of drug on HIV-1 replication was detected using p24 antigen capture ELISA method.

[5] = Toxicity test of compounds on PBMC cells (MTT); type: cell-based; details: human, PBMC cells (Table 4)
Procedure: (§3) The compound to be tested was subject to 5-fold dilution in a 96-well microtiter plate with RPMI-1640 or DMEM complete medium (containing 10% FBS) (Six dilution) triplicate for each dilution and 100 μl for each well. While wells not containing drugs were set as control. Into each well was added 100 μl of 4×10^5/ml PM1, HOS-CD4-CCR5 cells or 100 μl of 5×10^6/ml PHA stimulated PBMC. The cells were cultured at 37° C. with 5% CO2 for three days (PBMC cells were cultured for seven days and 100 μl of fresh RPMI-1640 complete medium was supplemented on the third day). Cytotoxicity was tested with MTT assay. OD values were measured by ELx800 microplate reader. The detection wavelength was 570 nm, and the reference wavelength was 630 nm.

[6] = tested on: HIV-1Ba-L virus strain; experiment: Inhibition of viral replication in HOS-CD4-CCR5 cells infected with HIV-1Ba-L; type: cell-based
Procedure: (§4) On the day before the test, 1×10^5/ml of HOS-CD4-CCR5 cells were inoculated in 96-well plates with 100 μl for each well. The compound to be tested was subject to 5-fold dilution in 96-well microtiter plate with DMEM complete medium (containing 10% FBS). The starting concentration was 1 μM and six dilutions were obtained. Triplicate wells were set for each dilution and each well contained 100 μl mixture. While wells not containing drugs were set as control. The supernatant was removed and 100 μl of drug was added and incubated for 2 h. Then 100 μl of HIV-1SF162 and HIV-1Ba-L were added to dilute supernatant. The cells were infected for 1 h, free virus was washed out and drug with the same final concentration was added. MVC was used as positive control. The cells were cultured at 37° C. with 5% CO2 for three days. The supernatant was collected, lysed and inactivated with 0.5% Triton X-100. The inhibition effect of drug on HIV-1 replication was detected using p24 antigen capture ELISA method.

[7] = tested on: HIV-1SF162 virus strain; experiment: Inhibition of viral replication in HOS-CD4-CCR5 cells infected with HIV-1SF162; type: cell-based
Procedure: as §4

[8] = Toxicity test of compounds on HOS-CD4-CCR5 cells (MTT); type: cell-based; details: human; HOS-CD4+-CCR5 cells (Table 7)
Procedure: as §3

[9] = molecular target: CYP1A2 (Homo sapiens (Human), UniProt P05177); experiment: CYP450 inhibition activity assay (Vivid kit) CYP1A2; type: in vitro ADME; details: CYP450 subtype (μM) 1A2 (IC50)
CYP1A2, sequence (P05177 whole entry): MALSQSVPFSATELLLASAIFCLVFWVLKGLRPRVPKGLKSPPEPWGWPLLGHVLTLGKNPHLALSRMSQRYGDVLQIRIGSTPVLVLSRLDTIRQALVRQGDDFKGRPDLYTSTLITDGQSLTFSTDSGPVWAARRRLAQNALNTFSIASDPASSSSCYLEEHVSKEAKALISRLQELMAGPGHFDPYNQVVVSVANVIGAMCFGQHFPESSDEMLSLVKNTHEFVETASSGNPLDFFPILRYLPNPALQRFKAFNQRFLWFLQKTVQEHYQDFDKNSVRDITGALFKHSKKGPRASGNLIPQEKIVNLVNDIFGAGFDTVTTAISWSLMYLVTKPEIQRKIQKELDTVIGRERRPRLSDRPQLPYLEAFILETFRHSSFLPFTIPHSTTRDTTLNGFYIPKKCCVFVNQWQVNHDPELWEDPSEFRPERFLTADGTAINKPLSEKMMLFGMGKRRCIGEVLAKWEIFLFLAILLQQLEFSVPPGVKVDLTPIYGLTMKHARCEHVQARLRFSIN
Procedure: VividR CYP450 Screening Kits can be used to evaluate the effects on CYP450 subtypes (CYP1A2, CYP2D6, CYP2C9, CYP2C19, CYP3A4-T and CYP3A4-M) and the substrate VividR in the kit can be metabolizd to a product which can emit strong fluorescence in an aqueous solution by specific CYP450 enzymes.
The compounds to be tested and positive compound were added to corresponding wells and DMSO was added to control wells.
CYP450 enzyme was added to the compounds to be tested, positive compound and DMSO control wells. The enzyme dilution was used to replace enzyme and added to DMSO wells as test background. The mixture was vibrated and mixed for 1 minute, and then incubated at room temperature for 20 minutes.
NADP^+ regeneration system and the substrate were added to initiate the reaction and incubated at room temperature for 60 minutes.

[10] = in vivo; details: male, rat
[11] = tested on: HIV-1SF162 virus strain; experiment: Inhibition activity on TZM-bl cells infected with HIV-1SF162; details: for EC50: Human immunodeficiency virus 1, TZM-bl; for therapeutic index (TI): TZM-bl cells infected with HIV-1SF162; for cytotoxicity in vitro and therapeutic index in words, versus positive control compound: TZM-bl cells infected with HIV-1SF162, conclusion from Table 3
[12] = Human immunodeficiency virus 1, PBMC
[13] = Human immunodeficiency virus 1, HOS-CD4-CCR5

## Cc1nnc(C(C)C)n1C1CC2CCC(C1)N2CC[C@H](NC(=O)C1CCCC1)c1cccs1 (stereo partly drawn) [Compound 18, N-[(1S)-3-[exo-3-(3-isopropyl-5-methyl-4H-1,2,4-triazol-4-yl)-8-azabicyclo[3.2.1]octane-8-yl]-1-(thiophen-2-yl)propyl]cyclopentane-1-carboxamide]
[1]
  CC50: > 200 µg/mL
[2]; [12]
  EC50: 0.0927 µg/mL (≈ 0.197 µM)
[2]; PBMC cells infected with HIV-1SF162
  therapeutic index (TI): 3721
[3]; [12]
  EC50: 0.0699 µg/mL (≈ 0.149 µM)
[3]; PBMC cells infected with HIV-1KM018
  therapeutic index (TI): 4935.2
[4]; [12]
  EC50: 0.289 µg/mL (≈ 0.616 µM)
[4]; PBMC cells infected with HIV-1Ba-L
  therapeutic index (TI): 2266.5
[5]
  CC50 at 7 days: 345 µg/mL (≈ 735 µM)
[6]; [13]
  EC50: 0.0034 µg/mL (≈ 0.00724 µM)
[7]; [13]
  EC50: 0.0203 µg/mL (≈ 0.0432 µM)
[8]
  CC50 at 3 days: 507 µg/mL (≈ 1080 µM)
[9]
  IC50: > 25 µM
[10]
  bioavailability: 90.5%
[10]; 10 mg/kg
  AUC(0-t): 1550 ng·h/mL
[10]; iv, 10 mg/kg
  AUC(0-inf): 1600 ng·h/mL
  AUC(0-t): 1550 ng·h/mL
  Cmax: 771 ng/mL
  MRT: 1.98 h
  Tmax: 0.25 h
  half-life: 1.81 h
[10]; po, 20 mg/kg
  AUC(0-inf): 3070 ng·h/mL
  AUC(0-t): 2800 ng·h/mL
  Cmax: 690 ng/mL
  MRT: 2.94 h
  Tmax: 2 h
  bioavailability: 90.5%
  half-life: 2.05 h
[11]
  EC50: 0.00123 µg/mL (≈ 0.00262 µM)
  therapeutic index (TI): >162601.63
  cytotoxicity in vitro and therapeutic index in words, versus positive control compound: better than positive control compound

## Cc1nnc(C(C)C)n1C1CC2CCC(C1)N2CC[C@H](NC(=O)C1CCC(F)(F)CC1)c1cccs1 (stereo partly drawn) [Compound 14, 4,4-difluoro-N-[(1S)-3-[exo-3-(3-isopropyl-5-methyl-4H-1,2,4-triazol-4-yl)-8-azabicyclo[3.2.1]octane-8-yl]-1-(thiophen-2-yl)propyl]cyclohexane-1-carboxamide]
[1]
  CC50: > 200 µg/mL
[2]; Human immunodeficiency virus 1, PBMC cells infected with HIV-1SF162, read-out: EC50
  EC50: 0.00158 µg/mL (≈ 0.00304 µM)
[3]; Human immunodeficiency virus 1, PBMC cells infected with HIV-1KM018, read-out: EC50
  EC50: 0.00377 µg/mL (≈ 0.00725 µM)
[4]; Human immunodeficiency virus 1, PBMC cells infected with HIV-1Ba-L, read-out: EC50
  EC50: 0.0197 µg/mL (≈ 0.0379 µM)
[5]; PHA stimulated PBMC
  CC50 at 7 days: 268 µg/mL (≈ 515 µM)
[6]; Human immunodeficiency virus 1, HOS-CD4+-CCR5 cells infected with HIV-1Ba-L, read-out: EC50
  EC50: 0.00074 µg/mL (≈ 0.00142 µM)
[7]; Human immunodeficiency virus 1, HOS-CD4+-CCR5 cells infected with HIV-1SF162, read-out: EC50
  EC50: 0.0131 µg/mL (≈ 0.0251 µM)
[8]
  CC50 at 3 days: 370 µg/mL (≈ 711 µM)
[10]
  bioavailability: 7.85%
[10]; 10 mg/kg
  AUC(0-t): 7050 ng·h/mL
[10]; iv, 10 mg/kg
  AUC(0-inf): 7060 ng·h/mL
  AUC(0-t): 7050 ng·h/mL
  Cmax: 6840 ng/mL
  MRT: 0.71 h
  Tmax: 0.25 h
  half-life: 0.77 h
[10]; po, 20 mg/kg
  AUC(0-inf): 1190 ng·h/mL
  AUC(0-t): 1110 ng·h/mL
  Cmax: 266 ng/mL
  MRT: 3.33 h
  Tmax: 4 h
  bioavailability: 7.85%
  half-life: 2.12 h
[11]
  EC50: 0.00359 µg/mL (≈ 0.00691 µM)
  therapeutic index (TI): >55710.31
  cytotoxicity in vitro and therapeutic index in words, versus positive control compound: better than positive control compound
